Literature values, collected in US7022677B1, “Amide derivatives as growth hormone secretagogues” (Kaken Pharmaceutical Co., Ltd., priority 1999, dated 2006).

Legend:
[1] = test system: growth hormone release; settings: control compound for pharmacophore development
[2] = human, in vivo

oral bioavailability [2] | Compound | growth hormone releasing activity (active/inactive) [1]
– | CC(C)(N)CC(=O)N[C@H]1CCc2ccccc2N(Cc2ccc(-c3ccccc3-c3nn[nH]n3)cc2)C1=O [L-692,428] | inactive
0.3% | GHRP-6 | –
